The values that follow are results of earlier work, collected in US20260076921A1, “Transdermal Pharmaceutical Formulations for the Treatment of Multiple Sclerosis” (Pike Therapeutics Inc., priority 2020, published 2026).

For data set [1] the following is noted: literature ranges.
The conditions of data set [2]: 6.2 mg/day dose.

“And” between values parts separate entries of the source, which are not always exact repeats. Equal values may be shown once.

One may read the Ki as a measure of affinity in units of concentration, obtained from inhibition or displacement. For the compound `CCCCCn1cc(C(=O)c2ccc(Cl)c3ccccc23)c2ccccc21` [JWH-398], at CB1, the Ki is 2.3 nM.
`CCCCC/C=C\C/C=C\C/C=C\C/C=C\CCCC(=O)N[C@H](C)CO` [Methanandamide]: the Ki on CB1 is 17.9 nM.
As for `C=C(C)[C@@H]1CCC(C)=C[C@H]1c1c(O)cc(CCCCC)cc1O` [CBD, 2-[(1R,6R)-6-isopropenyl-3-methylcyclohex-2-en-1-yl]-5-pentylbenzene-1,3-diol], the Oral bioavailability in data set [1] is 13-19% and 5-6%. Moreover, in data set [2], the “effect on knee-joint swelling” value was “very effective to reduce knee-joint swelling”.
`CCCCCn1cc(C(=O)c2cccc3cccc(Br)c23)c2ccccc21` [JWH-424]: on CB1, the Ki is 20.9 nM.
